Molecules are shown by their SMILES.

Usually IC50 stands for the concentration at which inhibition is half-maximal. Read a low IC50 as inhibition by little substance.

T2 sequence (P13569 whole entry): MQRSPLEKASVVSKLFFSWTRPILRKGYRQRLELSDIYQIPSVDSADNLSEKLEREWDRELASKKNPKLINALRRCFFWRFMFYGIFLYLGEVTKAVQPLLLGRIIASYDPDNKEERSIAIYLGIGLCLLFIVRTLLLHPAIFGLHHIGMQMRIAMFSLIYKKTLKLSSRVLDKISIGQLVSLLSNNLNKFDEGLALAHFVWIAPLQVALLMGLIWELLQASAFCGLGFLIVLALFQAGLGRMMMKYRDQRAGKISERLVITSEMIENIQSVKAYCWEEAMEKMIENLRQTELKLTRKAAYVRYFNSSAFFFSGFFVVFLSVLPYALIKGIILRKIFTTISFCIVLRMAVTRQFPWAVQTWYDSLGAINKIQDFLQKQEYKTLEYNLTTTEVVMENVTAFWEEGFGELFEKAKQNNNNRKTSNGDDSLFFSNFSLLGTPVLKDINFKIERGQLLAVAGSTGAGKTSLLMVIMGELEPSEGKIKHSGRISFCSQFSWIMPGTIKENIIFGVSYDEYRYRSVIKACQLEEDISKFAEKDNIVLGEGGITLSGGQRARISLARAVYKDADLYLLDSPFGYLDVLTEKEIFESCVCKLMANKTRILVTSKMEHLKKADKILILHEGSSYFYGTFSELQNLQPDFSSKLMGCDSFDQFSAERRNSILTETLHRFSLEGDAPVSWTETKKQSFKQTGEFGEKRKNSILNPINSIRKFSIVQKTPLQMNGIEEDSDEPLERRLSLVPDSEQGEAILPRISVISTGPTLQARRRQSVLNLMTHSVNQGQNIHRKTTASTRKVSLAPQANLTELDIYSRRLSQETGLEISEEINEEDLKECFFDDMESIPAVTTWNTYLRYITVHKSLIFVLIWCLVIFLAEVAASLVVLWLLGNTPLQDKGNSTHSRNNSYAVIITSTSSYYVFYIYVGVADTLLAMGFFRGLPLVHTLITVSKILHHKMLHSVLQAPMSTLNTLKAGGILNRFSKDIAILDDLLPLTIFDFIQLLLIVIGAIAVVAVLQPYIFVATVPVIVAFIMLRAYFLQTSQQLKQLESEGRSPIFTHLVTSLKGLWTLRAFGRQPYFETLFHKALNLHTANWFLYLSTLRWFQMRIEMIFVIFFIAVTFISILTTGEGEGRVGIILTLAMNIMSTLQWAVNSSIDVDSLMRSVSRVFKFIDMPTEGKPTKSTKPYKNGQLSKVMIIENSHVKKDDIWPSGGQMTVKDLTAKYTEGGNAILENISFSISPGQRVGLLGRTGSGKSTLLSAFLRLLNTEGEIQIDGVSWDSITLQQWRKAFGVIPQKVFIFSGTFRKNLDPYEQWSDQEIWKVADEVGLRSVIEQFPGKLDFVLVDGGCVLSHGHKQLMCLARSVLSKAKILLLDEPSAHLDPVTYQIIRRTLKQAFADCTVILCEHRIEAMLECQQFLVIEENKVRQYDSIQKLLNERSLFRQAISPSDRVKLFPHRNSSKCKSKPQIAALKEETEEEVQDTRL

The target of the first assay is T1, CFTR in the CHO-CFTR cell line (Homo sapiens, UniProt P13569).
T1 construct: expressed in transfected cells; host or cells: CHO (CHO-CFTR cell line)
T1 sequence (P13569 whole entry): as above
The assay is described as follows: CHO-CFTR assay (FLIPR assay, same conditions as T84 assay). The format is cell-based. As to conditions: average of at least 2 runs unless marked n = 1.
`COCCOCCOCCOCCN(Cc1ccc(C(C)(C)C)cc1)C(=O)c1ncn(-c2cc(Cl)c(O)c(Cl)c2)n1` [Compound 120, N-(4-tert-butylbenzyl)-1-(3,5-dichloro-4-hydroxyphenyl)-N-(2,5,8,11-tetraoxatridecan-13-yl)-1H-1,2,4-triazole-3-carboxamide] yielded an IC50 of no less than 50 µM.

Take `COCCOCCOCCOCCOCCOCCOCCOCCON(Cc1ccc(Oc2ccccc2)cc1)C(=O)c1ncn(-c2cc(Cl)c(O)c(Cl)c2)n1` [Compound 121, N-(2,5,8,11,14,17,20,23-octaoxapentacosan-25-yloxy)-1-(3,5-dichloro-4-hydroxyphenyl)-N-(4-phenoxybenzyl)-1H-1,2,4-triazole-3-carboxamide]: the concentration for half-maximal inhibition (IC50) is no less than 50 µM.

Take `COCCOCCOCCOCCON(Cc1ccc(Oc2ccccc2)cc1)C(=O)c1ncn(-c2cc(Cl)c(O)c(Cl)c2)n1` [Compound 122, N-(2,5,8,11-tetraoxatridecan-13-yloxy)-1-(3,5-dichloro-4-hydroxyphenyl)-N-(4-phenoxybenzyl)-1H-1,2,4-triazole-3-carboxamide]: the 50% inhibitory concentration (IC50) was no less than 50 µM.

In turn, `COCCOCCOCCON(Cc1ccc(Oc2ccccc2)cc1)C(=O)c1ncn(-c2cc(Cl)c(O)c(Cl)c2)n1` [Compound 123, 1-(3,5-dichloro-4-hydroxyphenyl)-N-(2-(2-(2-methoxyethoxy)ethoxy)ethoxy)-N-(4-phenoxybenzyl)-1H-1,2,4-triazole-3-carboxamide] had a half-maximal inhibitory concentration (IC50) of no less than 50 µM.

As for `CON(Cc1ccc(C(C)C)cc1)C(=O)c1ncn(-c2cc(Cl)c(O)c(Cl)c2)n1` [Compound 128, 1-(3,5-dichloro-4-hydroxyphenyl)-N-(4-isopropylbenzyl)-N-methoxy-1H-1,2,4-triazole-3-carboxamide], the IC50 was no less than 50 µM.

The next assay has as its target T2, CFTR channel in human colonic T84 cells (Homo sapiens, UniProt P13569).
T2 construct: host or cells: T84 human colonic cells
As to the kind of experiment: T84 assay (FLIPR membrane potential dye, forskolin/IBMX-stimulated). The format is cell-based. As to conditions: average of at least 2 runs unless marked n = 1. As to the method:
For example, Human colonic T84 cells can be acquired from the European Collection of Cell Cultures (ECACC) and grown in standard culture conditions as described by the supplier. On the day before assay 25,000 T84 cells per well are plated into standard black walled, clear bottom 384-well assay plates in standard growth medium consisting of DMEM:F12 with 10% FBS and incubated overnight. […] T84 cells are incubated with the FLIPR Red membrane potential dye for 45 minutes in the presence and absence of test compound before being transferred to a commercially available fluorescence imaging plate reader (FLIPR384, Molecular Devices Corporation). Fluorescence levels are monitored continuously every second for 150 seconds; after an initial 10 second baseline, CFTR channel activity is stimulated through the addition of 10 μM forskolin in the presence of 100 μM of the phosphodiesterase inhibitor iso-butyl-methylxanthine (IBMX). […] CFTR channel opening causes chloride ion efflux and subsequent depolarization of the cells, which is measured by an increase in fluorescence. CFTR inhibitor compounds prevent cell depolarization and the associated increase in fluorescence. […]
On to `O=C(NCc1ccc(Oc2cc(C(F)(F)F)cc(C(F)(F)F)c2)cc1)c1ncn(-c2cc(Cl)c(O)c(Cl)c2)n1` [Compound 62, N-(4-(3,5-bis(trifluoromethyl)phenoxy)benzyl)-1-(3,5-dichloro-4-hydroxyphenyl)-1H-1,2,4-triazole-3-carboxamide], for which the IC50 was no less than 50 µM.

For the molecule `CN(C)c1cccc(Oc2ccc(CNC(=O)c3ncn(-c4cc(Cl)c(O)c(Cl)c4)n3)cc2)c1` [Compound 64, 1-(3,5-dichloro-4-hydroxyphenyl)-N-(4-(3-(dimethylamino)phenoxy)benzyl)-1H-1,2,4-triazole-3-carboxamide], the half-inhibitory concentration (IC50) was no less than 50 µM.

The test system of another assay is cholera toxin (CTX)-induced net fluid secretion in small intestine loops.
Assay: not given
More on the design: species or system mice (CD1 strain). As to conditions: mouse, in vivo.
In the case of `O=C(NC(c1ccccc1)c1ccccc1)c1ncn(-c2cc(Cl)c(O)c(Cl)c2)n1` [Compound 2, N-benzhydryl-1-(3,5-dichloro-4-hydroxyphenyl)-1H-1,2,4-triazole-3-carboxamide], the “% inhibition @ 100 μg dose (closed loop % inhibition)” value (“% inhibition @ 100 μg dose” below) worked out at 42.9%.

For `O=C(NCCC(c1ccccc1)c1ccccc1)c1ncn(-c2cc(Cl)c(O)c(Cl)c2)n1` [Compound 31, 1-(3,5-dichloro-4-hydroxyphenyl)-N-(3,3-diphenylpropyl)-1H-1,2,4-triazole-3-carboxamide], the “% inhibition @ 100 μg dose” value came out at 45.1%.

In the case of `O=C(NCc1ccc(Cl)c(Cl)c1)c1ncn(-c2cc(Cl)c(O)c(Cl)c2)n1` [Compound 37, 1-(3,5-dichloro-4-hydroxyphenyl)-N-(3,4-dichlorobenzyl)-1H-1,2,4-triazole-3-carboxamide], the “% inhibition @ 100 μg dose” value is reported as 76.9%.

`O=C(NCc1ccc(Oc2ccccc2)cc1)c1ncn(-c2cc(Cl)c(O)c(Cl)c2)n1` [Compound 49, 1-(3,5-dichloro-4-hydroxyphenyl)-N-(4-phenoxybenzyl)-1H-1,2,4-triazole-3-carboxamide]: the “% inhibition @ 100 μg dose” value is recorded as 42.3%.

In the case of `Oc1c(Cl)cc(-n2cnc(C(O)(c3cc(F)cc(F)c3)c3cc(F)cc(F)c3)n2)cc1Cl` [Compound 52, 4-(3-(bis(3,5-difluorophenyl)(hydroxy)methyl)-1H-1,2,4-triazol-1-yl)-2,6-dichlorophenol], the “% inhibition @ 100 μg dose” value is recorded as 55.3%.

As to `O=C(NCc1ccc(Oc2ccc(F)c(C(F)(F)F)c2)cc1)c1ncn(-c2cc(Cl)c(O)c(Cl)c2)n1` [Compound 67, 1-(3,5-dichloro-4-hydroxyphenyl)-N-(4-(4-fluoro-3-(trifluoromethyl)phenoxy)benzyl)-1H-1,2,4-triazole-3-carboxamide], the “% inhibition @ 100 μg dose” value was found to be 88.2%.

`CC(C)c1ccc(CC(NC(=O)c2ncn(-c3cc(Cl)c(O)c(Cl)c3)n2)C(=O)C(C)(C)C)cc1` (centres unmarked) [Compound 134, 1-(3,5-dichloro-4-hydroxyphenyl)-N-(1-(4-isopropylphenyl)-4,4-dimethyl-3-oxopentan-2-yl)-1H-1,2,4-triazole-3-carboxamide]: the “% inhibition @ 100 μg dose” value amounted to 71.7%.

For the origin of these results see patent publication US20110237528A1, “COMPOSITIONS AND METHODS COMPRISING IMIDAZOLE AND TRIAZOLE DERIVATIVES” (INSTITUTE FOR ONEWORLD HEALTH, priority 2008, published 2011).
